Results taken from patent US9751881B2, “Inhibitors of the renal outer medullary potassium channel” (Merck Sharp & Dohme Corp., priority 2013, dated 2017).
Structures can show the parent of a compound that is named as a salt.

Target: hROMK (hKir1.1) (Homo sapiens (Human), UniProt P48048)
Assay: Thallium Flux Assay (ROMK channel functional thallium flux, FLIPR-Tetra)
Assay type: cell-based
Settings: HEK293 cells stably expressing hROMK (hKir1.1); unit not given in Table 4 (IC50 potencies less than 1 μM); read-out: ROMK TI IC50
Method: Cell Culture Conditions—HEK293 cells stably expressing hROMK (hKir1.1) were grown at 37° C. in a 10% CO2 humidified incubator in complete growth media: Dulbecco's Modified Eagle Medium supplemented with non-essential amino acids, Penicillin/Streptomycin/Glutamine, G418 and FBS. At >80% confluency, the media was aspirated from the flask and rinsed with 10 mL calcium/magnesium-free PBS. […] To dislodge the cell, the side of the flask was gently banged with one's hand. The cells completely titrated and then the cells were transferred to 25 mL complete media, centrifuged at 1,500 rpm for 6 min followed by resuspension in complete growth media and determine cell concentration. […] Under ideal growth conditions and appropriate tissue culture practices, this cell line is stable for 40-45 passages.
FluxOR Kit Components (Invitrogen F10017)
• FluxOR™ Reagent (Component A) • FluxOR™ Assay Buffer (Component B)—10× Concentrate • PowerLoad™ Concentrate (Component C)—100× Concentrate • Probenecid (Component D)—Lyophilized sample is kept at −20° C. Water soluble, 100× after solubilization in 1 mL water. […] Store at 4° C. • Thallium sulfate (Tl2SO4) Concentrate (Component G)—50 mM in water. […] Can be stored at room temperature • Stimulant Buffer (prepared at 5× final concentration in 1× FluxOR™Chloride-Free Buffer): 7.5 mM thallium sulfate and 0.75 mM potassium sulfate (to give a final assay concentration of 3 mM Thallium/0.3 mM potassium). Store at 4° C. when not in use. If kept sterile, this solution is good for months.
• 1. Seed HEK-hKir1.1 cells (50 μl at 20,000 cells/well) in 384-well PDL coated Microplates • 2. Allow cells to adhere overnight in humidified 37° C./10% CO2 incubator • 3. Completely remove cell growth media from microplate and replace with 25 μl loading buffer • 4. Incubate Microplate at room temperature, protected form light, for 90 min • 5. Remove loading buffer and replace with 25 μl 1× Assay Buffer±test compound. • 6. Incubate microplate at room temperature, protected from light, for 30 min • 7. […] Excitation=400 nm, Emission=460 & 580 nm. Collect data for ˜10 min.
Data Calculation—The fluorescence intensity of wells containing 3 μM of a standard control ROMK inhibitor of the present invention was used to define the ROMK-sensitive component of thallium flux. Fluorescence in the presence of test compounds was normalized to control values to provide % fluorescence change.

Chain of hROMK (hKir1.1) (P48048 whole entry): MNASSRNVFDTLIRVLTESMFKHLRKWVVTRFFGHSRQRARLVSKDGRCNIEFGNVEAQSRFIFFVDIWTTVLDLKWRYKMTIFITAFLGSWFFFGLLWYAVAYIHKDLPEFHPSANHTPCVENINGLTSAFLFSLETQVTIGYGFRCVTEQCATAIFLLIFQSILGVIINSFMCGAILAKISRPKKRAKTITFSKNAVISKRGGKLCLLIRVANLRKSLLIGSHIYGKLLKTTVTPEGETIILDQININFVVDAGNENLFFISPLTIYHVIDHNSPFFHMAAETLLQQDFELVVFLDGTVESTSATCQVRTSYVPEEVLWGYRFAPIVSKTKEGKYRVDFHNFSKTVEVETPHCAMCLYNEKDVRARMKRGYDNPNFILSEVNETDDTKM

Structure (SMILES) | IC50 [nM]
COc1cc(N2CC3(CCN(C[C@H](O)c4ccc5c(c4C)COC5=O)CC3)CC2=O)ccc1C#N [Example 16, (R)-4-(8-(2-Hydroxy-2-(4-methyl-1-oxo-1,3-dihydroisobenzofuran-5-yl)ethyl)-3-oxo-2,8-diazaspiro[4.5]decan-2-yl)-2-methoxybenzonitrile] | 51
Cc1c([C@@H](O)CN2CCC3(CC2)CCN(c2nnc(S(C)(=O)=O)s2)C3)ccc2c1COC2=O [Example 62, 5-[(1R)-1-hydroxy-2-{2-[5-(methylsulfonyl)-1,3,4-thiadiazol-2-yl]-2,8-diazaspiro[4.5]dec-8-yl}ethyl]-4-methyl-2-benzofuran-1(3H)-one hydrochloride] | 210
Cc1c([C@@H](O)CN2CCC3(CC2)CC(=O)N(c2nnc(S(C)(=O)=O)s2)C3)ccc2c1COC2=O [Example 71, 8-[(2R)-2-Hydroxy-2-(4-methyl-1-oxo-1,3-dihydro-2-benzofuran-5-yl)ethyl]-2-[5-(methylsulfonyl)-1,3,4-thiadiazol-2-yl]-2,8-diazaspiro[4.5]decan-3-one hydrochloride] | 142
Cc1cc(C#N)c(N2CCC3(CCN(CC(O)c4ccc5c(c4C)COC5=O)CC3)CC2)nn1 (stereo not drawn) [Example 112] | 161
Cc1c([C@@H](O)CN2CCC3(CC2)CC(=O)N(c2ccc(-n4cnnn4)cn2)C3)ccc2c1COC2=O [Example 6, (R)-2-(5-(1H-tetrazol-1-yl)pyridin-2-yl)-8-(2-hydroxy-2-(4-methyl-1-oxo-1,3-dihydroisobenzofuran-5-yl)ethyl)-2,8-diazaspiro[4.5]decan-3-one] | 92.5
Cc1c([C@@H](O)CN2C3CCC2CC2(CC(=O)N(c4ccc(C#N)cn4)C2)C3)ccc2c1COC2=O (stereo partly drawn) [Example 29, 6-(8-((R)-2-Hydroxy-2-(4-methyl-1-oxo-1,3-dihydroisobenzofuran-5-yl)ethyl)-5′-oxo-8-azaspiro[bicyclo[3.2.1]octane-3,3′-pyrrolidin]-1′-yl)nicotinonitrile] | 198
Cc1c([C@@H](O)CN2CCC3(CC2)CN(c2ccc(C#N)cn2)C3)ccc2c1COC2=O [Example 45, (R)-6-(7-(2-Hydroxy-2-(4-methyl-1-oxo-1,3-dihydroisobenzofuran-5-yl)ethyl)-2,7-diazaspiro[3.5]nonan-2-yl)nicotinonitrile] | 104
CN[C@@H](CN1CCC2(CC1)CCN(c1ccc(C#N)cn1)C2)c1ccc2c(c1C)COC2=O [Example 77, (R)-6-(8-(2-(4-methyl-1-oxo-1,3-dihydroisobenzofuran-5-yl)-2-(methylamino)ethyl)-2,8-diazaspiro[4.5]decan-2-yl)nicotinonitrile] | 61.3
Cc1c([C@@H](O)CN2CCC3(CC2)CN(c2ccc(S(C)(=O)=O)nc2)CCO3)ccc2c1COC2=O [Example 99, (R)-5-(1-Hydroxy-2-(4-(6-(methylsulfonyl)pyridin-3-yl)-1-oxa-4,9-diazaspiro[5.5]undecan-9-yl)ethyl)-4-methylisobenzofuran-1(3H)-one] | 168
Cc1nc(N2CCC3(CCN(CC(O)c4ccc5c(c4C)COC5=O)CC3)CC2)ccc1C#N (stereo not drawn) [Example 114] | 136
Cc1c([C@@H](O)CN2CCC3(CC2)CN(c2ccc(S(C)(=O)=O)cn2)C3)ccc2c1COC2=O [Example 47, (R)-5-(1-Hydroxy-2-(2-(5-(methylsulfonyl)pyridin-2-yl)-2,7-diazaspiro[3.5]nonan-7-yl)ethyl)-4-methylisobenzofuran-1(3H)-one] | 220
Cc1c([C@@H](O)CN2CCC3(CC2)CCN(c2ccc(S(C)(=O)=O)nn2)C3)ccc2c1COC2=O [Example 32, (R)-5-(1-Hydroxy-2-(2-(6-(methylsulfonyl)pyridazin-3-yl)-2,8-diazaspiro[4.5]decan-8-yl)ethyl)-4-methylisobenzofuran-1(3H)-one] | 177
Cc1c(C(O)CN2CCC3(CC2)CCN(c2cc(C#N)ncn2)CC3)ccc2c1COC2=O (stereo not drawn) [Example 106] | 26.3
Cc1c(CCN2CCC3(CC2)CCN(c2ccc(-c4ncon4)cn2)C3)ccc2c1COC2=O [Example 17, 5-(2-(2-(5-(1,2,4-oxadiazol-3-yl)pyridin-2-yl)-2,8-diazaspiro[4.5]decan-8-yl)ethyl)-4-methylisobenzofuran-1(3H)-one] | 190
Cc1c([C@@H](O)CN2CCC3(CC2)CC(=O)N(c2ccc(S(C)(=O)=O)cc2)C3)ccc2c1COC2=O [Example 74, 8-[(2R)-2-Hydroxy-2-(4-methyl-1-oxo-1,3-dihydro-2-benzofuran-5-yl)ethyl]-2-[4-(methylsulfonyl)phenyl]-2,8-diazaspiro[4.5]decan-3-one hydrochloride] | 82.2
Cc1c([C@@H](O)CN2CCC3(CC2)CCN(c2ccc(C#N)cn2)C3)ccc2c1COC2=O [Example 3, (R)-6-(8-(2-hydroxy-2-(4-methyl-1-oxo-1,3-dihydroisobenzofuran-5-yl)ethyl)-2,8-diazaspiro[4.5]decan-2-yl)nicotinonitrile] | 10
Cc1c([C@@H](O)CN2CCC3(CC2)CC(=O)N(c2ccc(S(=O)(=O)C4CC4)cc2)C3)ccc2c1COC2=O [Example 70, 2-[4-(Cyclopropylsulfonyl)phenyl]-8-[(2R)-2-hydroxy-2-(4-methyl-1-oxo-1,3-dihydro-2-benzofuran-5-yl)ethyl]-2,8-diazaspiro[4.5]decan-3-one hydrochloride] | 248
COc1cc(C#N)ccc1N1CCC2(CCN(C[C@H](O)c3ccc4c(c3C)COC4=O)CC2)C1 [Example 86] | 50.4
Cc1c([C@@H](O)CN2CCC3(CC2)CN(c2cnc(S(C)(=O)=O)cn2)C(=O)O3)ccc2c1COC2=O [Example 92, (R)-8-(2-Hydroxy-2-(4-methyl-1-oxo-1,3-dihydroisobenzofuran-5-yl)ethyl)-3-(5-(methylsulfonyl)pyrazin-2-yl)-1-oxa-3,8-diazaspiro[4.5]decan-2-one] | 125
Cc1c([C@@H](O)CN2CCC3(CC2)CCN(c2ncc(S(C)(=O)=O)s2)C3)ccc2c1COC2=O [Example 38, (R)-5-(1-Hydroxy-2-(2-(5-(methylsulfonyl)thiazol-2-yl)-2,8-diazaspiro[4.5]decan-8-yl)ethyl)-4-methylisobenzofuran-1(3H)-one] | 60
Cc1c([C@@H](O)CN2CCC3(CC2)CCN(c2nnc(S(C)(=O)=O)s2)C3=O)ccc2c1COC2=O [Example 76, 8-[(2R)-2-Hydroxy-2-(4-methyl-1-oxo-1,3-dihydro-2-benzofuran-5-yl)ethyl]-2-[5-(methylsulfonyl)-1,3,4-thiadiazol-2-yl]-2,8-diazaspiro[4.5]decan-1-one hydrochloride] | 100
Cc1c([C@@H](O)CN2CCC3(CC2)CC(=O)N(c2ccc(-n4cnnn4)c(F)c2)C3)ccc2c1COC2=O [Example 69, 2-[3-Fluoro-4-(1H-tetrazol-1-yl)phenyl]-8-[(2R)-2-hydroxy-2-(4-methyl-1-oxo-1,3-dihydro-2-benzofuran-5-yl)ethyl]-2,8-diazaspiro[4.5]decan-3-one hydrochloride] | 173
Cc1c([C@@H](O)CN2CCC3(CCN(c4cnc(S(C)(=O)=O)cn4)CC3)C2)ccc2c1COC2=O [Example 65, 5-[(1R)-1-Hydroxy-2-{8-[5-(methylsulfonyl)pyrazin-2-yl]-2,8-diazaspiro[4.5]dec-2-yl}ethyl]-4-methyl-2-benzofuran-1(3H)-one hydrochloride] | 99.8
COc1cc(N2CCC3(CCN(C[C@H](O)c4ccc5c(c4C)COC5=O)CC3)C2)ncc1C#N [Example 82] | 32.8
N#Cc1ccc(N2CCC3(CCN(CC4OCCc5c4ccc4c5COC4=O)CC3)C2)nc1 (stereo not drawn) [Example 27, 6-(8-((3-oxo-3,6,8,9-tetrahydro-1H-furo[3,4-f]isochromen-6-yl)methyl)-2,8-diazaspiro[4.5]decan-2-yl)nicotinonitrile] | 103
Cc1c([C@@H](O)CN2CCC3(CC2)CCN(c2ccc(S(C)(=O)=O)nc2)CC3)ccc2c1COC2=O [Example 103, (R)-5-(1-hydroxy-2-(9-(6-(methylsulfonyl)148yridine-3-yl)-3,9-diazaspiro[5.5]undecan-3-yl)ethyl)-4-methylisobenzofuran-1(3H)-one] | 563
Cc1cc2c(cc1C(O)CN1CCC3(CC1)CC(=O)N(c1ccc(C#N)cn1)C3)COC2=O (stereo not drawn) [Example 2, 6-(8-(2-hydroxy-2-(6-methyl-1-oxo-1,3-dihydroisobenzofuran-5-yl)ethyl)-3-oxo-2,8-diazaspiro[4.5]decan-2-yl)nicotinonitrile] | 23
